In article PMC10999543, “Identification of kinase modulators as host-directed therapeutics against intracellular methicillin-resistant Staphylococcus aureus” (Frontiers in Cellular and Infection Microbiology, 2024):
Where two headings read alike, the source gives them in different places.

Key:
intracellular MRSA = assay type: cell-based, Staphylococcus aureus; details: for %GFP+ rep 1 / z-scoreMRSA+ rep 1: replicate 1; for %GFP+ rep 2 / z-scoreMRSA+ rep 2: replicate 2; for %GFP+ rep 3 / z-scoreMRSA+ rep 3: replicate 3; for z-scoreMRSA+ mean: mean of 3 replicates; on %GFP+ rep 1: test concentration or dose not given here; on %GFP+ rep 2: test concentration or dose not given here; on %GFP+ rep 3: test concentration or dose not given here; on effect: test concentration or dose not given here; on z-scoreMRSA+ mean: test concentration or dose not given here; on z-scoreMRSA+ rep 1: test concentration or dose not given here; on z-scoreMRSA+ rep 2: test concentration or dose not given here; on z-scoreMRSA+ rep 3: test concentration or dose not given here
Summary of the method: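 Values are z-scores: GFP-positive HeLa percentage and event count per well against plate statistics, minus the mean DMSO z-score. Wells deviating two-fold from controls were left out of plate means. Infection was at a mean MOI of 6.8, with an overnight compound exposure.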

HeLa cells = experiment: Compound screen by flow cytometry: HeLa cell count as surrogate readout of cell viability (z-scoreHeLa); assay type: cell-based, human; details: for cell count rep 1 / z-scoreHeLa rep 1: replicate 1; for cell count rep 2 / z-scoreHeLa rep 2: replicate 2; for cell count rep 3 / z-scoreHeLa rep 3: replicate 3; for z-scoreHeLa mean: mean of 3 replicates; on all read-outs here: test concentration or dose not given here
Summary of the method: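 The viability surrogate was the count of fixed HeLa cells by flow cytometry, converted to z-scores against DMSO controls with values deviating two-fold excluded. Before counting, cells had been infected with MRSA for 1 h and cleared of extracellular bacteria with gentamicin. They were then exposed overnight to kinase inhibitors in triplicate.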

[1] = PKIS compounds raw data, MRSA-infected HeLa cells
[2] = Yes/No: effect without cell death
[3] = compound screen, MRSA-infected HeLa cells
[4] = PKIS compounds raw data, HeLa cell count
[5] = compound screen, HeLa cell count
[6] = PKIS compound screen raw data, MRSA-infected HeLa cells
[7] = PKIS compound screen, MRSA-infected HeLa cells
[8] = PKIS compound screen, Yes/No call (effect without cell death)
[9] = PKIS compound screen, Yes/No call on z-scoreMRSA+
[10] = PKIS compound screen raw data, HeLa cell count
[11] = PKIS compound screen, HeLa cell count
[12] = PKIS compound screen, Yes/No call on z-scoreHeLa
[13] = PKIS compound screen, Yes/No call

Row | Compound | %GFP+ rep 1 (intracellular MRSA; [1]) [%] | %GFP+ rep 2 (intracellular MRSA; [1]) [%] | %GFP+ rep 3 (intracellular MRSA; [1]) [%] | cell count rep 1 (HeLa cells; [4]) | cell count rep 2 (HeLa cells; [4]) | cell count rep 3 (HeLa cells; [4]) | %GFP+ rep 1 (intracellular MRSA; [6]) [%] | %GFP+ rep 2 (intracellular MRSA; [6]) [%] | %GFP+ rep 3 (intracellular MRSA; [6]) [%] | z-scoreMRSA+ mean (intracellular MRSA; [7]) | z-scoreMRSA+ rep 1 (intracellular MRSA; [7]) | z-scoreMRSA+ rep 2 (intracellular MRSA; [7]) | z-scoreMRSA+ rep 3 (intracellular MRSA; [7]) | hit (intracellular MRSA; [8]) | effect (intracellular MRSA; [9]) | cell count rep 1 (HeLa cells; [10]) | cell count rep 2 (HeLa cells; [10]) | cell count rep 3 (HeLa cells; [10]) | z-scoreHeLa mean (HeLa cells; [11]) | z-scoreHeLa rep 1 (HeLa cells; [11]) | also measured
1 | COc1cccc(-n2nc(C)c3c(N/N=C(\C)c4ccncc4)ncnc32)c1 [GW809885X] | 10.1 | 9.2 | 10.0 | 4315 | 6939 | 7689 | – | – | – | – | – | – | – | – | – | – | – | – | – | – | effect (intracellular MRSA; Yes/No call from z-scoreMRSA+): No; hit (intracellular MRSA; [2]): No; z-scoreMRSA+ mean (intracellular MRSA; [3]): -1.40; z-scoreMRSA+ rep 1 (intracellular MRSA; [3]): -0.98; z-scoreMRSA+ rep 2 (intracellular MRSA; [3]): -1.45; z-scoreMRSA+ rep 3 (intracellular MRSA; [3]): -1.76; cell death (HeLa cells; Yes/No call from z-scoreHeLa): No; z-scoreHeLa mean (HeLa cells; [5]): 0.65; z-scoreHeLa rep 1 (HeLa cells; [5]): -0.42; z-scoreHeLa rep 2 (HeLa cells; [5]): 2.02; z-scoreHeLa rep 3 (HeLa cells; [5]): 0.35
2 | CN(c1ccc2c(c1)nc(NCc1ccccc1)n2C)c1ccnc(Nc2ccc(CS(C)(=O)=O)cc2)n1 [GW811603A] | 29.9 | 27.8 | 24.6 | 3958 | 3626 | 4329 | – | – | – | – | – | – | – | – | – | – | – | – | – | – | effect (intracellular MRSA; Yes/No call from z-scoreMRSA+): No; hit (intracellular MRSA; [2]): No; z-scoreMRSA+ mean (intracellular MRSA; [3]): 1.02; z-scoreMRSA+ rep 1 (intracellular MRSA; [3]): 1.08; z-scoreMRSA+ rep 2 (intracellular MRSA; [3]): 1.26; z-scoreMRSA+ rep 3 (intracellular MRSA; [3]): 0.72; cell death (HeLa cells; Yes/No call from z-scoreHeLa): No; z-scoreHeLa mean (HeLa cells; [5]): -0.46; z-scoreHeLa rep 1 (HeLa cells; [5]): -0.28; z-scoreHeLa rep 2 (HeLa cells; [5]): -0.52; z-scoreHeLa rep 3 (HeLa cells; [5]): -0.57
3 | CCOc1ccc2c(-c3ccnc(Nc4cccc(C(F)(F)F)c4)n3)cnn2n1 [GW811761X] | – | – | – | – | – | – | 16.8 | 16.8 | 18.1 | -0.46 | -0.34 | -0.52 | -0.51 | No | No | 25545 | 40447 | 52915 | 1.28 | 0.82 | z-scoreHeLa rep 2 (HeLa cells; [11]): 1.06; z-scoreHeLa rep 3 (HeLa cells; [11]): 1.97; cell death (HeLa cells; [12]): No
4 | O=C(c1ccc(-c2cc(-c3c[nH]nc3-c3ccccn3)ccn2)cc1)N1CCOCC1 [GW812171X] | 25.0 | 25.6 | 27.6 | 9409 | 7175 | 6822 | – | – | – | – | – | – | – | No | – | – | – | – | – | – | effect (intracellular MRSA; [13]): No; z-scoreMRSA+ mean (intracellular MRSA; PKIS compound screen): -0.14; z-scoreMRSA+ rep 1 (intracellular MRSA; PKIS compound screen): -0.40; z-scoreMRSA+ rep 2 (intracellular MRSA; PKIS compound screen): -0.08; z-scoreMRSA+ rep 3 (intracellular MRSA; PKIS compound screen): 0.06; cell death (HeLa cells; [13]): No; z-scoreHeLa mean (HeLa cells; PKIS compound screen): 1.19; z-scoreHeLa rep 1 (HeLa cells; PKIS compound screen): 2.02; z-scoreHeLa rep 2 (HeLa cells; PKIS compound screen): 0.77; z-scoreHeLa rep 3 (HeLa cells; PKIS compound screen): 0.78
5 | CN(c1ccc2c(c1)nc(NCc1ccc(F)cc1)n2C)c1ccnc(Nc2ccc(CS(C)(=O)=O)cc2)n1 [GW813244A] | – | – | – | – | – | – | 19.9 | 20.6 | 22.3 | 0.68 | 0.65 | 0.62 | 0.76 | No | No | 29228 | 26803 | 36349 | -0.26 | 1.38 | z-scoreHeLa rep 2 (HeLa cells; [11]): -1.49; z-scoreHeLa rep 3 (HeLa cells; [11]): -0.67; cell death (HeLa cells; [12]): No
6 | CCCNC(=O)Nc1ccc(N(C)c2ccnc(NC3CC3)n2)cc1 [GW818933X] | 27.9 | 27.2 | 26.9 | 6971 | 6954 | 6744 | 16.2 | 17.1 | 17.2 | -0.81 | -0.69 | -0.63 | -1.10 | No | No | 29169 | 27486 | 16622 | -0.08 | -0.17 | effect (intracellular MRSA; [13]): No; z-scoreMRSA+ mean (intracellular MRSA; PKIS compound screen): 0.11; z-scoreMRSA+ rep 1 (intracellular MRSA; PKIS compound screen): 0.16; z-scoreMRSA+ rep 2 (intracellular MRSA; PKIS compound screen): 0.22; z-scoreMRSA+ rep 3 (intracellular MRSA; PKIS compound screen): -0.07; z-scoreHeLa rep 2 (HeLa cells; [11]): 0.38; z-scoreHeLa rep 3 (HeLa cells; [11]): -0.45; cell death (HeLa cells; [13]): No; cell death (HeLa cells; [12]): No; z-scoreHeLa mean (HeLa cells; PKIS compound screen): 0.64; z-scoreHeLa rep 1 (HeLa cells; PKIS compound screen): 0.56; z-scoreHeLa rep 2 (HeLa cells; PKIS compound screen): 0.63; z-scoreHeLa rep 3 (HeLa cells; PKIS compound screen): 0.73
